Assay results from patent US20120083522A1, “MODULATION OF INFLAMMATORY RESPONSES BY FACTOR XI” (Isis Pharmaceuitcals, inc., priority 2009, published 2012).
In the oligonucleotide strings, read from the 5' end, every base follows the letter of its sugar. An asterisk marks phosphorothioate; unmarked linkages are phosphodiester. Other units and linkages are bracketed, terminal groups are in braces. A string of capitals states the bases alone. e = 2'-O-(2-methoxyethyl) (MOE); [5mC] = 5-methylcytosine; d = 2'-deoxy (DNA)

Assays:
Factor XI protein = assay: Cynomolgus monkeys: plasma Factor XI protein ELISA (Example 29); format: in vivo
How it was run: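 Monkeys received subcutaneous escalating doses (5, 10, then 25 mg/kg, two or three times weekly over 12 weeks) or a lower chronic regimen capped at 10 mg/kg. Plasma was sampled weekly and assayed at 1:50 by sandwich ELISA with o-phenylenediamine read at 490 nm. Values are % reduction versus PBS controls.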

[1] = Tolerability in CD1 mice: body and organ weight (Example 25); format: in vivo; details: 50 mg/kg s.c. twice per week for 6 weeks
[2] = Colitis Study F: plasma ALT, AST, BUN, CREAT, CHOL, TBIL; format: in vivo, Swiss Webb mice; details: DSS-treated mice, 50 mg/kg s.c. twice a week for 3 weeks
Procedure: In a first group of 8 Swiss Webb mice, 50 mg/kg of ISIS 404071 was injected subcutaneously twice a week for 3 weeks. Two control groups of 8 mice each were injected with PBS twice a week for 3 weeks. After the oligonucleotide treatment, 4% DSS in water was administered ad libitum for 7 days to the experimental group and one PBS control group. Mice were sacrificed at the end of the study on day 7 after DSS was administered.
Plasma levels of aminotransferases (ALT and AST), blood urea nitrogen (BUN), creatinine (CREAT), cholesterol (CHOL) and total bilirubin (TBIL) were measured after treatment and are shown in Table 47.

[3] = test system: thrombin-antithrombin (TAT) complexes; assay: Colitis Study E: TAT levels; format: in vivo, Swiss Webb mice; details: for TAT levels: colon, DSS-treated mice, day 7, 40 mpk
Procedure: Two groups 8 Swiss Webb mice were dosed with 40 mg/kg of ISIS 404071 injected subcutaneously twice a week for 3 weeks. Two control groups of 8 Swiss Webb mice were dosed with PBS subcutaneously twice a week for 3 weeks. Both the ASO treated groups and one of the control groups were then given 4% DSS in distilled water for 7 days ad libitum. One of the ASO and DSS treated groups was also given intravenous injections of 20 μg of recombinant human Factor XI protein (Haematologic Technologies Inc.) for 7 consecutive days, starting the day before DSS treatment. Mice were sacrificed at the end of the study on day 7 after DSS was administered.
Mice with dextran sodium sulfate (DSS)-induced colitis have elevated level of thrombin-antithrombin (TAT) complexes in blood (Anthoni, C. et al., J. Exp. Med. 204: 1595-1601, 2007) and is also observed in patients with ulcerative colitis (Kume, K. et al., Intern Med. 2007. 46: 1323-9). The effect of antisense inhibition of Factor XI on TAT levels in the […] was evaluated (Siemens Healthcare Diagnostics, Deerfield, Ill.) at the end of the study on day 7 after DSS was administered and the results are presented in Table 38.

[4] = test system: soluble CD40 ligand (CD40L); assay: Colitis Study D: CD40L levels; format: in vivo, Swiss Webb mice; details: for CD40L levels in colon: DSS-treated mice
Procedure: In a first group of 8 Swiss Webb mice, 10 mg/kg of ISIS 404071 was injected subcutaneously twice a week for 3 weeks. In a second group of 8 Swiss Webb mice, 20 mg/kg of ISIS 404057 was subcutaneously injected twice a week for 3 weeks. In a third control group of 8 Swiss Webb mice, 40 mg/kg of ISISI 404057 was injected subcutaneously twice a week for 3 weeks. Two control groups of 8 mice each were injected with PBS twice a week for 3 weeks. After the oligonucleotide treatment, 4% DSS in water was administered ad libitum for 7 days to all the experimental groups and one PBS control group.
Plasma levels of soluble CD40 ligand (CD40L) are known to be elevated in cases of inflammatory bowel disease (Ludwiczek, O. et al., Int. J. Colorectal Disease. 2003. 18: 142-147) and may be considered a marker of intestinal inflammation. […]

[5] = test system: DSS-induced colitis model; assay: Colitis Study F: body weight, stool scores, colon length and weight; format: in vivo, Swiss Webb mice; details: DSS-treated mice, 50 mg/kg, Day 8

In the case of “ISIS 416850: gapmer of Table 8 (antisense eT*eG*e[5mC]*eA*e[5mC]*dA*dG*dT*dT*dT*d[5mC]*dT*dG*dG*d[5mC]*eA*eG*eG*e[5mC]*e[5mC])”, the “Factor XI protein levels (in words)” value (Factor XI protein; Example 29) is reported as “time-dependent decrease in protein levels”, the “Inhibition of Factor XI protein relative to the PBS control” value (Factor XI protein; chronic, lower dose regimen (*) 5 then 10 mg/kg s.c., day 8) is reported as 6% and the “Inhibition of Factor XI protein relative to the PBS control” value (Factor XI protein; chronic, lower dose regimen (*) 5 then 10 mg/kg s.c., day 15) is reported as 13%. For the same substance, the “Inhibition of Factor XI protein relative to the PBS control” value (Factor XI protein; chronic, lower dose regimen (*) 5 then 10 mg/kg s.c., day 22) was 12%, the “Inhibition of Factor XI protein relative to the PBS control” value (Factor XI protein; chronic, lower dose regimen (*) 5 then 10 mg/kg s.c., day 29) was 20% and the “Inhibition of Factor XI protein relative to the PBS control” value (Factor XI protein; chronic, lower dose regimen (*) 5 then 10 mg/kg s.c., day 36) was 22%. For the same substance, the “Inhibition of Factor XI protein relative to the PBS control” value (Factor XI protein; chronic, lower dose regimen (*) 5 then 10 mg/kg s.c., day 43) was 24%, the “Inhibition of Factor XI protein relative to the PBS control” value (Factor XI protein; chronic, lower dose regimen (*) 5 then 10 mg/kg s.c., day 50) was 30% and the “Inhibition of Factor XI protein relative to the PBS control” value (Factor XI protein; chronic, lower dose regimen (*) 5 then 10 mg/kg s.c., day 57) was 34%. For the same substance, the “Inhibition of Factor XI protein relative to the PBS control” value (Factor XI protein; chronic, lower dose regimen (*) 5 then 10 mg/kg s.c., day 64) was 37%, the “Inhibition of Factor XI protein relative to the PBS control” value (Factor XI protein; chronic, lower dose regimen (*) 5 then 10 mg/kg s.c., day 71) was 41% and the “Inhibition of Factor XI protein relative to the PBS control” value (Factor XI protein; chronic, lower dose regimen (*) 5 then 10 mg/kg s.c., day 78) was 42%. The “Inhibition of Factor XI protein relative to the PBS control” value (Factor XI protein; chronic, lower dose regimen (*) 5 then 10 mg/kg s.c., day 85) was 34%, the “Inhibition of Factor XI protein relative to the PBS control” value (Factor XI protein; chronic, lower dose regimen (*) 5 then 10 mg/kg s.c., day −5 (before treatment)) was 1% and the “Inhibition of Factor XI protein relative to the PBS control” value (Factor XI protein; chronic, lower dose regimen (*) 5 then 10 mg/kg s.c., day −14 (before treatment)) was 0%. The “Inhibition of Factor XI protein relative to the PBS control” value (Factor XI protein; escalating doses 5, 10, 25 mg/kg s.c., day 8) was 8%, the “Inhibition of Factor XI protein relative to the PBS control” value (Factor XI protein; escalating doses 5, 10, 25 mg/kg s.c., day 15) was 4% and the “Inhibition of Factor XI protein relative to the PBS control” value (Factor XI protein; escalating doses 5, 10, 25 mg/kg s.c., day 22) was 11%. The “Inhibition of Factor XI protein relative to the PBS control” value (Factor XI protein; escalating doses 5, 10, 25 mg/kg s.c., day 29) was 15%, the “Inhibition of Factor XI protein relative to the PBS control” value (Factor XI protein; escalating doses 5, 10, 25 mg/kg s.c., day 36) was 17% and the “Inhibition of Factor XI protein relative to the PBS control” value (Factor XI protein; escalating doses 5, 10, 25 mg/kg s.c., day 43) was 23%. For the same substance, the “Inhibition of Factor XI protein relative to the PBS control” value (Factor XI protein; escalating doses 5, 10, 25 mg/kg s.c., day 50) was 42%, the “Inhibition of Factor XI protein relative to the PBS control” value (Factor XI protein; escalating doses 5, 10, 25 mg/kg s.c., day 57) was 49% and the “Inhibition of Factor XI protein relative to the PBS control” value (Factor XI protein; escalating doses 5, 10, 25 mg/kg s.c., day 64) was 55%. For the same substance, the “Inhibition of Factor XI protein relative to the PBS control” value (Factor XI protein; escalating doses 5, 10, 25 mg/kg s.c., day 71) was 57%, the “Inhibition of Factor XI protein relative to the PBS control” value (Factor XI protein; escalating doses 5, 10, 25 mg/kg s.c., day 78) was 63% and the “Inhibition of Factor XI protein relative to the PBS control” value (Factor XI protein; escalating doses 5, 10, 25 mg/kg s.c., day 85) was 64%. The “Inhibition of Factor XI protein relative to the PBS control” value (Factor XI protein; escalating doses 5, 10, 25 mg/kg s.c., day −5 (before treatment)) was 0%, the “Inhibition of Factor XI protein relative to the PBS control” value (Factor XI protein; escalating doses 5, 10, 25 mg/kg s.c., day −14 (before treatment)) was 0% and the “Body weight (increase over PBS control weight before start of treatment)” value [1] was 11 g. For the same substance, the “Kidney weight as percentage of body weight” value ([1]; end of study) was 1.5%, the “Liver weight as percentage of body weight” value ([1]; end of study) was 6% and the “Spleen weight as percentage of body weight” value ([1]; end of study) was 0.4%.
For “TGGTAATCCACTTTCAGAGG (eT*eG*eG*eT*eA*dA*dT*d[5mC]*d[5mC]*dA*d[5mC]*dT*dT*dT*d[5mC]*eA*eG*eA*eG*eG) [ISIS 404071, 5-10-5 MOE gapmer targeting murine Factor XI, target start site 869]”, the “Plasma ALT” value [2] was 133.6 U/L, the “Plasma AST” value [2] was 339.3 U/L and the “Plasma BUN” value [2] was 29.5 mg/dL. For the same substance, the “Plasma CHOL” value [2] was 170.3 mg/dL, the “Plasma TBIL” value [2] was 0.7 mg/dL and the “TAT levels (in words)” value ([3]; Colitis Study E, day 7) was “decreased”. The TAT levels ([3]; no human recombinant FXI) was 0.1 ng/mg protein, the TAT levels ([3]; plus human recombinant FXI 20 ug/mouse/day) was 0.8 ng/mg protein and the “CD40L levels (in words)” value ([4]; Colitis Study D) was “decreased”. The “CD40L levels in colon” value ([4]; 10 mpk) was 0.19 ng/mg protein, the “CD40L levels in colon” value ([4]; 20 mpk) was 0.26 ng/mg protein and the “CD40L levels in colon” value ([4]; 40 mpk) was 0.39 ng/mg protein. For the same substance, the Stool score [5] was 2.
